Measured values reported in patent US7285703B2, “Plant like starches and the method of making them in hosts” (BASF Plant Science GmbH, priority 1998, dated 2007).

Tests used:
[1] = biological target: maize starch synthase SSIIa-2, N-terminally truncated SSIIa, first 176 amino acids deleted (493 amino acids), N-terminus GENVMNVI (SEQ ID NO:1) (Zea mays, UniProt A0A804PX87); assay: ADPGlc kinetics of starch synthase SSIIa-2; assay type: biochemical; conditions: for Vmax (ADPGlc kinetics): amylopectin as primer
Text: FIG. 59. SSIIa-1 and SSIIa-2 construct diagram. Two forms of SSIIa were constructed in the pET expression system. pExs3c encodes SSIIa-1, the putative full length maize SSIIa which has the N-terminal sequence AEAEAGGK (SEQ ID NO:68). […] A depiction of the waxy gene, encoding GBSS which has the N-terminal sequence ASAGMNVV (SEQ ID NO:67), is also included for comparison. The amino acid motif KTGGL (SEQ ID NO:10), the putative binding site for ADPGlc, is indicated by the triangles. The KTGGL (SEQ ID NO:10) motif is located 18 amino acids from the N-terminus in GBSS, while the motif is 194 amino acids from the N-terminus in maize SSIIa.
5 mL of supernatant were used to assay STS and SBE activities as previously described (Preiss) with minor modification. […] […] The unincorporated [^14C]-ADPGlc was separated with Dowex anion exchange column (200-400 mesh, Sigma Chemical Co.). One unit of activity is defined as 1 nmol Glc incorporated into the a-glucan per min at 25° C. SBE activity was determined by phosphorylase stimulation assay. One unit of activity is defined as 1 mmol Glc incorporated into the a-glucan per min at. 30° C.
For the recombinant SS purification, the cell pellet was resuspended in sonication buffer (50 mM Tris-acetate, pH 7.5, 10 mM EDTA, and 5 mMDTT; 7 ml buffer per gram of cell mass), and cells were lysed using a Fisher 550 Sonic Dismembrator with 5×1 min. bursts with 30 sec. intervals. The homogenate was centrifuged at 9600 g for 30 minutes. SSI in the supernatant was then precipitated by slowly adding neutralized saturated ammonium sulfate to 40% saturation. After stirring on ice for an additional 50 minutes, proteins were collected by centrifugation at 12500 g for 45 minutes. The protein pellet was then redissolved in buffer A (50 mM Tris, pH 5.5, 1 mM EDTA, and 5 mM DTT) containing 0.1 M KCl and dialyzed against the same buffer, with one change of buffer. After dialysis, the sample was centrifuged at 13000 g for 20 minutes to remove insoluble materials. The resulting supernatant was loaded onto […] pre-equilibrated with dialysis buffer, and the flow through was collected. The column was washed with 10 column volumes of buffer a containing 0.1 M KCl, and then with buffer A containing 0.5 M KCl and 0.5 M maltose, collecting fractions during both washes. The active fractions were pooled and dialyzed overnight against buffer A, with one change of buffer. The next day, the amylase column sample was filtered and applied to a mono Q 5/5 FPLC column (Pharmacia). After washing with buffer A, a 20 ml 0-0,4 M KCl gradient was employed. The active fractions were electrophoresed on an 8% SDS-PAGE gel (31) to determine the purity of SSI in those fractions; the fractions which were apparently homogeneous were pooled and concentrated using a Centricon-30 spin column (Amicon).

[2] = biological target: T1, maize starch synthase SSI-2 (STSI-2), N-terminally truncated SSI, amino acids 8-52 of SSI-1 deleted, N-terminus CVAELSR/DLG (SEQ ID NO:65) (Zea mays, UniProt O49064, DEL47-91); assay: ADPGlc kinetics of starch synthase SSI-2; conditions: 5 mg/ml amylopectin as primer, 37° C.
T1 sequence (O49064 with tags, fused parts or gaps DEL47-91): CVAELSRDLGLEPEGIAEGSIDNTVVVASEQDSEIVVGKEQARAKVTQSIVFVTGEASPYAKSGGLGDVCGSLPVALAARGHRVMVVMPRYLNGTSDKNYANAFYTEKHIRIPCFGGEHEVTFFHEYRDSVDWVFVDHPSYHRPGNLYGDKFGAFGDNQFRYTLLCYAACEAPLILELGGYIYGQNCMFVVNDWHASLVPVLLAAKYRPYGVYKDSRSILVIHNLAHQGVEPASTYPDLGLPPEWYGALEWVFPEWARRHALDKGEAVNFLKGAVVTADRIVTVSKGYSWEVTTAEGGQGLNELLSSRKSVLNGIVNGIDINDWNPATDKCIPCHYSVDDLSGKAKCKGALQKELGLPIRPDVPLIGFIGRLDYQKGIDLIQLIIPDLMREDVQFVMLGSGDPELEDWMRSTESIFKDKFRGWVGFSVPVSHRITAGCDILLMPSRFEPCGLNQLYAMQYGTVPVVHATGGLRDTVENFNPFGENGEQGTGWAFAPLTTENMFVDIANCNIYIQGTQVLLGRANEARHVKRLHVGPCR
Protocol: (SEQ ID NO:64). pExs8 encodes a truncated SSI, SSI-2, with amino acids # 8-52 deleted from the N-terminus of SSI-1 and which has the N-terminal sequence CVAELSR/DLG (SEQ ID NO:65). pExs1d encodes the most truncated form of SSI, SSI-3, with the first 93 amino acids deleted from SSI-1 and which has the N-terminal sequence [sequence]
5 mL of supernatant were used to assay STS and SBE activities as previously described (Preiss) with minor modification. The reaction mixture for STS contained 100 mM Bicine buffer, 10 mg/mL glycogen, 0.5 mg/mL BSA, 0.5 M sodium citrate, 25 mM potassium acetate, 10 mM GSH, 3 mM [^14C]-ADPGlc (500 dpm/nmol) and enzyme in a final volume of 0.1 mL. The reaction was carried out at 25° C. for 15 min and terminated by boiling for 2 min. The unincorporated [^14C]-ADPGlc was separated with Dowex anion exchange column (200-400 mesh, Sigma Chemical Co.). One unit of activity is defined as 1 nmol Glc incorporated into the a-glucan per min at 25° C.
For the recombinant SS purification, the cell pellet was resuspended in sonication buffer (50 mM Tris-acetate, pH 7.5, 10 mM EDTA, and 5 mMDTT; 7 ml buffer per gram of cell mass), and cells were lysed using a Fisher 550 Sonic Dismembrator with 5×1 min. bursts with 30 sec. intervals. The homogenate was centrifuged at 9600 g for 30 minutes. SSI in the supernatant was then precipitated by slowly adding neutralized saturated ammonium sulfate to 40% saturation. After stirring on ice for an additional 50 minutes, proteins were collected by centrifugation at 12500 g for 45 minutes. The protein pellet was then redissolved in buffer A (50 mM Tris, pH 5.5, 1 mM EDTA, and 5 mM DTT) containing 0.1 M KCl and dialyzed against the same buffer, with one change of buffer. After dialysis, the sample was centrifuged at 13000 g for 20 minutes to remove insoluble materials. The resulting supernatant was loaded onto amylase affinity column pre-equilibrated with dialysis buffer, and the flow through was collected. […]

maize starch synthase SSIIa-2, N-terminally truncated SSIIa, first 176 amino acids deleted (493 amino acids), N-terminus GENVMNVI (SEQ ID NO:1), sequence (A0A804PX87 entry or part of it, stated change not applied): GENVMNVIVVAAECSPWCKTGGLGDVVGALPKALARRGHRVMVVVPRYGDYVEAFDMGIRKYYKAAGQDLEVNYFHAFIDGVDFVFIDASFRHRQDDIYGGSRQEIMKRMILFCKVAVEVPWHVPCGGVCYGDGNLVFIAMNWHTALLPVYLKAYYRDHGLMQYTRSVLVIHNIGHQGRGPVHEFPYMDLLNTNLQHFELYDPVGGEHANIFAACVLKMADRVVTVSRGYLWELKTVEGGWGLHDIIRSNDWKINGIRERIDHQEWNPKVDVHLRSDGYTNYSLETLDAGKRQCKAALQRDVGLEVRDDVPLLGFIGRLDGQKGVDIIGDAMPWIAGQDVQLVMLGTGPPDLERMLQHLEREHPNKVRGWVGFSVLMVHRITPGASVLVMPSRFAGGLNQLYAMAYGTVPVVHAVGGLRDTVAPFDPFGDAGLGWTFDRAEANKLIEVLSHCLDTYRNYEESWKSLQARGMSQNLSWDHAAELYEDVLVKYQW

SMILES: Nc1ncnc2c1ncn2[C@@H]1O[C@H](COP(=O)(O)OP(=O)(O)O[C@H]2O[C@H](CO)[C@@H](O)[C@H](O)[C@H]2O)[C@@H](O)[C@H]1O [ADPGlc, adenosine diphosphate glucose]
- Km for ADPGlc compared with SSIIa-1 ([1]; all assay conditions used except glycogen primer at 27° C.): lower Km for ADPGlc
- Vmax (ADPGlc kinetics) ([1]; +citrate, 27° C.): 4.83 ± 0.42 μmol/min/mg protein
- Vmax (ADPGlc kinetics) ([1]; +citrate, 37° C.): 11.4 ± 0.6 μmol/min/mg protein
- Vmax (ADPGlc kinetics) ([1]; −citrate, 27° C.): 4.87 ± 0.25 μmol/min/mg protein
- Vmax (ADPGlc kinetics) ([1]; −citrate, 37° C.): 7.86 ± 0.53 μmol/min/mg protein
- effect of raising temperature on Km for ADPGlc ([1]; from 27° C. to 37° C.): not affected by raising temperature
- Vm (ADPGlc kinetics) ([2]; +citrate): 32.6 ± 0.8 μmol/min/mg protein
- Vm (ADPGlc kinetics) ([2]; −citrate): 11.7 ± 0.7 μmol/min/mg protein
